{
  "source": "patent US8652840B2",
  "about": "“Method for obtaining female germline stem cells and uses thereof” (The General Hospital Corporation, priority 2004, dated 2014)",
  "key": {"[1]": {"system": "oocyte-containing follicles", "assay": "In-vivo HDAC suppression with Trichostatin A, counts of oocyte-containing follicles", "design": "species or system mice", "description": "(§1) Age-specified or timed-pregnant wild-type C57BL/6 and CD1 female mice were obtained from Charles River Laboratories, whereas AKR/J mice were obtained from Jackson Laboratories. Ovaries were fixed in 0.34N glacial acetic acid, 10% formalin, and 28% ethanol, paraffin embedded, and serially sectioned (8 μm). The sections were aligned in order on glass microscope slides, and stained with hematoxylin and picric methyl blue. The number of non-atretic or atretic primordial, primary, and preantral follicles was then determined. Primordial follicles were identified as having a compact oocyte surrounded by a single layer of flattened granulosa cells, while primary follicles were identified as having an enlarged oocyte surrounded by a single layer of cuboidal granulosa cells. Intermediate-stage follicles (compact or enlarged oocyte with a single layer of mixed flattened and cuboidal granulosa cells) were scored as primary. Preantral follicles were identified as having an enlarged oocyte surrounded by at least a partial or complete second layer of cuboidal granulosa cells, but no more than four complete layers of cuboidal granulosa cells. Only those follicles containing an oocyte with a clearly visible nucleus were scored. Follicles at the primordial, primary and preantral (immature) stages of development were scored as atretic if the oocyte was degenerating (convoluted, condensed) or fragmented. Grossly atretic follicles lacking oocyte remnants were not included in the analyses. Given that this procedure sampled one-fifth of the entire ovarian volume, the total number of follicles per ovary (healthy or atretic) was then estimated by multiplying the cumulative counts for each ovary by a correction factor of five (Zuckerman, S. (1951) Recent Prog. Horm. Res. 6: 63-108; Tilly, J. L. (2003) Reprod. Biol. Endocrinol. 1:1-11). A single trained ovarian histologist in a blinded fashion conducted all counts, and two other members of the group periodically evaluated random samples to verify accuracy and reproducibility of the data.\nAnimals were sacrificed 24 hours post-injection, histological preparations of ovaries were prepared, and oocyte-containing follicles were counted per standard laboratory procedures (see Example 1). Treatment with TSA caused a 53% increase in the number of total healthy immature oocyte-containing follicles per ovary when compared with ovaries of control mice given the vehicle treatment. Not only was the resting (primordial) pool of follicles increased by 42%, but also the number of early growing (primary) follicles was increased (FIG. 7c)."}, "primordial follicles": {"system": "primordial follicles", "design": "species or system mice", "conditions": "mouse, in vivo", "description": "as §1, with “Given that this procedure sampled one-fifth of the entire ovarian volume, the total number of follicles per ovary (healthy or atretic) was then estimated by multiplying the cumulative counts for each ovary by a correction factor of five (Zuckerman, S. (1951) Recent Prog. Horm. Res. 6: 63-108; Tilly, J. L. (2003) Reprod. Biol. Endocrinol. 1:1-11).” left out, “data. […]” for “data.”\nTo clarify whether loss of primordial follicles observed in busulfan-treated females (FIG. 5a) results from toxicity to existing oocytes, ovaries were collected from female mice at multiple points during and after the busulfan dosing regimen described above, and they were analyzed for the incidence of primordial follicle atresia. […]"}, "ovarian function": {"system": "ovarian function", "conditions": "cited from earlier work"}, "[2]": {"system": "primordial and early growing follicles (oocytes)", "assay": "Doxorubicin-synchronized oocyte death in adult female mice, germ cell dynamics", "type": "in vivo", "procedure": "The existence of mammalian female germline stem cells implies an inherent capacity of the ovaries to generate, or regenerate following an insult, new stockpiles of resting (primordial) oocyte-containing follicles in a regulated fashion. To address this issue directly, adult female mice were injected with doxorubicin to synchronize oocyte death (Perez, G. I. et al, (1997) Nature Med. 3, 1228-32), and ovaries were collected at multiple intervals after drug exposure to assess germ cell dynamics."}, "[3]": {"conditions": "prepubertal female mice, single i.p. injection 10 mg/kg, 24 hours post-injection"}},
  "note": "Read-outs that look alike come from different tables or passages of the source.",
  "data": [
    {"smiles": "CC(/C=C/C(=O)NO)=C\\[C@@H](C)C(=O)c1ccc(N(C)C)cc1", "note": "[TSA, Trichostatin A]", "values": [
      {"measurement": "increase in primordial follicle numbers", "setting": "[1]; female mice at 240 days of age, within 24 h (data not shown)", "value": 89, "unit": "%"},
      {"measurement": "increase in healthy immature follicles (number)", "setting": "[1]; prepubertal (13-day old) female mice, 10 mg/kg, 24 hours", "value": "more than 1,600"},
      {"measurement": "increase in the number of total healthy immature oocyte-containing follicles per ovary versus vehicle", "setting": "[1]; [3]", "value": 53, "unit": "%"},
      {"measurement": "increase of the resting (primordial) pool of follicles", "setting": "[1]; [3]", "value": 42, "unit": "%"},
      {"measurement": "number of early growing (primary) follicles", "setting": "[1]; [3]", "value": "increased"}
    ]},
    {"smiles": "CS(=O)(=O)OCCCCOS(C)(=O)=O", "note": "[busulfan]", "values": [
      {"measurement": "plateau number of atretic primordial follicles", "setting": "primordial follicles; female, 20 mg/kg, 5 days", "value": 46, "unit": "per ovary"},
      {"measurement": "reduction in the resting (primordial) oocyte pool", "setting": "primordial follicles; female, 3 weeks", "value": 95, "unit": "%"},
      {"measurement": "ratio of primordial to primary follicles, busulfan versus vehicle", "setting": "primordial follicles", "value": "No significant change"},
      {"measurement": "POF, cases of patients", "setting": "ovarian function; in vivo", "value": "19 of 19"},
      {"measurement": "hypogonadism indicative of premature ovarian failure (POF), cases of patients", "setting": "ovarian function; in vivo", "value": "20 of 21"},
      {"measurement": "ovarian damage requiring hormonal replacement, cases of patients", "setting": "ovarian function; in vivo", "value": "4 of 4"}
    ]},
    {"smiles": "O=P1(N(CCCl)CCCl)NCCCO1", "note": "(centres unmarked) [cyclophosphamide]", "values": [
      {"measurement": "POF, cases of patients", "setting": "ovarian function; Grigg et al. 2000: both agents ages 14-57, median=38, cyclophosphamide alone ages 13-58, median=28", "value": "47 of 103"}
    ]},
    {"smiles": "COc1cccc2c1C(=O)c1c(O)c3c(c(O)c1C2=O)C[C@@](O)(C(=O)CO)C[C@@H]3O[C@H]1C[C@H](N)[C@H](O)[C@H](C)O1", "note": "[doxorubicin]", "values": [
      {"measurement": "primordial and total immature follicle pools", "setting": "[2]; between 24 and 36 h post-treatment (data not shown)", "value": "spontaneous regeneration"},
      {"measurement": "primordial and early growing follicles (oocytes)", "setting": "[2]; within the first 24 h after treatment (data not shown)", "value": "rapid and extensive loss"}
    ]}
  ]
}
